How the values were obtained:
Type in all cases: cell-based, human
[1] = test system: phosphorylated H2AX (γH2AX) in A549 cells; assay: Flow cytometry of phosphorylated H2AX, A549; conditions: A549, 25 μM Pt(IV)-4C or 7.5 μM Pt(IV)-5C for 6 hours, analyzed 12 hours post treatment
Experimental: (§1) FIG. 9 is a series of graphs plotting Pt(IV) complex-induced phosphorylation of H2AX in A549 cells (top panels) and DU145 cells (bottom panels). A549 cells were treated with control (left), 25 μM Pt(IV)-4C (center), or 7.5 μM Pt(IV)-5C (right) for 6 hours, and analyzed 12 hours post treatment. DU145 cells were treated for 2 hours with control (left), 10 μM Pt(IV)-4C (center), or 2.5 μM Pt(IV)-5C (right), and analyzed 7 hours post treatment. Data are representative of three independent experiments.
(§2) Cells (200,000 to 250,000) were seeded in 60 mm dishes and incubated at 37° C. in a humidified, 5% CO2 atmosphere for 2 days to reach ˜50-60% confluence. The cells were treated with the platinum complexes as indicated, the floating cells were collected, and both attached and floating cells were washed 2× with PBS. The cells were resuspended in fresh medium and incubated as indicated. After incubation, both the floating and attached cells were collected and fixed by incubation in 4% formaldehyde for 10 minutes at room temperature. The fixed cells were pelleted and permeabilized by incubation in 500 μL of ice-cold methanol at 4° C. for 10 minutes. The samples were stored at −20° C. until analysis. For analysis, the cells were pelleted and washed 2× with 1% BSA in PBS. […] After washing 2× with 1% BSA, the cells were resuspended in PBS and analyzed on a Becton Dickinson FACS Calibur. […]

[2] = test system: phosphorylated H2AX (γH2AX) in DU145 cells; assay: Flow cytometry of phosphorylated H2AX, DU145; conditions: DU145, 10 μM Pt(IV)-4C or 2.5 μM Pt(IV)-5C for 2 hours, analyzed 7 hours post treatment
Experimental: as §1, §2

[3] = test system: A549 cells; assay: Hoechst/PI staining, confocal microscopy, A549
Experimental: Cells (100,000 to 125,000) were seeded into 35 mm dishes and incubated for 48 hours at 37° C. The cells were treated with control, Pt(IV)-4C, or Pt(IV)-5C, and while in the dark, the cells were washed 2× with 1 mL PBS. After washing, 1 mL of a 2 μg/mL Hoechst 33342 and 10 μg/mL PI solution (in PBS) was added, and the cells were incubated for 15 minutes at room temperature. Images were acquired within 5 minutes with a Nikon A1R confocal laser scanning microscopy system (CLSM) mounted on a Nikon Eclipse Ti. At least three random areas on each dish were imaged.
Analysis of Hoechst (Ho) and PI staining by confocal microscopy also was performed to detect cell death. PI stains cells with membrane damage, whereas Ho stains both live and apoptotic cells (although apoptotic cells have more intense Ho fluorescence). […] Additionally, unlike A549, the PI positive cells in Pt(IV)-4C treated cells were higher than Pt(IV)-5C treated cells.

[4] = test system: cleaved-PARP in DU145 cells; assay: Flow cytometry of cleaved-PARP, DU145; conditions: DU145, 10 μM Pt(IV)-4C or 2.5 μM Pt(IV)-5C for 2 hours, analyzed seven hours post treatment
Experimental: FIG. 12 is a series of histograms indicating Pt(IV)-4C and Pt(IV)-5C-induced cleavage of PARP in A549 cells (top panels) and in DU145 cells (bottom). A549 cells were treated for 5 hours with control (left), 25 μM Pt(IV)-4C (center), or 7.5 μM Pt(IV)-5C (right), and analyzed 12 hours post treatment. DU145 cells were treated for 2 hours with control (left), 10 μM Pt(IV)-4C (center), or 2.5 μM Pt(IV)-5C (right), and analyzed seven hours post treatment. Data are representative of three independent experiments.
as §2

Molecule	level of phosphorylated H2AX (γH2AX) [1]	level of phosphorylated H2AX (γH2AX) [2]	Hoechst (Ho) fluorescence compared to control [3]	PI fluorescence compared to control [3]	fold increase of cleaved-PARP [4]
CC(=O)[O][Pt]([Cl])([Cl])[O]C(C)=O.CCCCCOc1ccnc(-c2cc(OCCCCC)ccn2)c1 [Pt(IV)-5C, [Pt(IV)Cl2(OAc)2(4,4′-dipentoxy-2,2′-bipyridine)]]	increase of γH2AX	increase of γH2AX	increased Ho fluorescence	no difference	~2 fold
[Pt(IV)Cl2(OAc)2(4,4′-dibutoxy-2,2′-bipyridine)] [Pt(IV)-4C]	increase of γH2AX	increase of γH2AX	increased Ho fluorescence	increased PI positive cells	~2 fold

Reference: patent US10316050B2, “PT (IV) complexes containing 4,4′-disubstituted-2,2′-bipyridyl and their use in cancer therapy” (THE BOARD OF REGENTS OF THE NEVADA SYSTEM OF HIGHER …, priority 2014, dated 2019)
